Measured values published in PMC6512342 (Biochemical pharmacology, 2018).
Several values for one entry are separate records, joined by “and”; a condition that tells them apart may be missing. Equal entries are not always repeated.

Legend:
CYP2D6 = conditions: read-out: KM for BMAMC; CYP2D6-containing bacterial membranes; cited from earlier work
human CYP2D6 = human CYP2D6 (Homo sapiens, UniProt P10635); assay: Substrate-induced spin shift titration, purified CYP2D6 in solution; assay type: binding; conditions: for maximal amplitude of the spin shift: purified CYP2D6 in solution
[1] = target: T1, human CYP2D6 (CYP2D6-incorporated proteoliposomes) (Homo sapiens, UniProt P10635); assay: Substrate-induced spin shift titration, CYP2D6-PLS; assay type: binding; conditions: for Kd: dissociation constant (KD), spin shift titration
[2] = target: T1, human CYP2D6 (CYP2D6-incorporated proteoliposomes); assay: MDMA utilization and DHMA formation in CYP2D6-PLS; assay type: in vitro ADME
[3] = healthy volunteers, recreational dose 100–150 mg; cited from earlier work
[4] = target: T2, CYP2D6 (CYP2D6 Supersomes) (Homo sapiens, UniProt P10635); assay: Spectroscopic study of MDMA-dependent MIC formation in CYP2D6-SS; assay type: biochemical; conditions: 100 μM MDMA, exponential fit
[5] = target: T2, CYP2D6 (CYP2D6 Supersomes); assay: MDMA-dependent TDI in CYP2D6-SS with BMAMC as probe substrate; conditions: 100 μM MDMA, exponential fit
[6] = MDMA liver-to-blood ratio and liver concentration; conditions: estimated from plasma peak and liver-to-blood ratio
[7] = target: T1, human CYP2D6 (CYP2D6-incorporated proteoliposomes); assay: MDMA-dependent time-dependent inhibition
[8] = target: T1, human CYP2D6 (CYP2D6-incorporated proteoliposomes); assay: Spectroscopic study of MDMA-dependent MIC formation in CYP2D6-PLS; assay type: biochemical
CYP3A4 = conditions: cited from earlier work
[9] = substrate: CCCCNCc1cc(=O)oc2cc(OC)ccc12; assay: Fluorometric determination of CYP2D6 activity with BMAMC in CYP2D6-SS; assay type: biochemical, human; conditions: other: CYP2D6-SS, 30 °C
[10] = kinetic model fit, kinetics of DHMA production
[11] = CYP2D6-PLS, 100 μM MDMA, exponential fit
[12] = kinetic model fit, kinetics of MIC formation

CCCCNCc1cc(=O)oc2cc(OC)ccc12 [BMAMC, N-butyl 7-methoxy-4-(aminomethyl)-coumarin]
Km (CYP2D6): 1.5 µM

COc1ccc2c(c1)[C@]13CCCC[C@@H]1[C@H](C2)N(C)CC3 [DXM, Dextromethorphan]
Kd (human CYP2D6): 45.7 ± 3.1 µM | maximal amplitude of the spin shift (human CYP2D6): 11.9±1.8% | maximal amplitude of the spin shift (Amax) [1]: 25% and 24.7±0.4% | Kd [1]: 52 µM and 53.2 µM

CNC(C)Cc1ccc2c(c1)OCO2 (stereo not drawn) [MDMA, 3,4-methylenedioxymethamphetamine]
Kd [2]: 49.5 µM | MDMA concentration after incubation ([2]; CYP2D6-PLS with NADPH, 1 hour, initial 5 μM MDMA): 1.5 µM | decrease in MDMA concentration ([2]; CYP2D6-PLS with NADPH, 1 hour, initial 100 μM MDMA): ≤ 30 % of the initial concentration | k3 [2, 10]: 3.9 min⁻¹ | k4 [2, 10]: 0.14 min⁻¹ | k5 [2, 10]: 0.047 min⁻¹ | k6 ([2]; kinetic model fit, kinetics of DHMA production, MDMA-independent inactivation): 0.041 min⁻¹ | Finact ([2]; kinetic model fit, kinetics of DHMA production, value fixed from MIC analysis): 0.42 | Kd (human CYP2D6): 21.8 ± 7.7 µM | maximal amplitude of the spin shift (human CYP2D6): 6.0± 1.5% | peak concentration in blood plasma [3]: 1 pM | Amax (MIC) [4]: 49% | Kobs (MIC) [4]: 0.19 min⁻¹ | maximal amplitude of the spin shift (Amax) [1]: 8.1% and 10.9±5.5% | Kd [1]: 24 µM and 27.9 µM | Kobs (TDI) [5]: 0.28 min⁻¹ | physiological concentration of MDMA in human liver [6]: ≤ 10 pM | Kd [7]: 23.9 µM | reversibility of inactivation of CYP2D6 ([7]; CYP2D6-PLS): reversible | Kobs (TDI) [7, 11]: 0.15 min⁻¹ | maximal depth of TDI at enzyme saturation with MDMA ([7]; CYP2D6-PLS, DXM as probe substrate, Michaelis-Menten fit): 80±8% | relative amplitude of TDI at MDMA saturation ([7]; CYP2D6-PLS, rate of BMAMC metabolism): over 80% | k3 ([7]; kinetic model fit, TDI): 3.2 min⁻¹ | k4 ([7]; kinetic model fit, TDI): 0.085 min⁻¹ | k5 ([7]; kinetic model fit, TDI): 0.033 min⁻¹ | k6 ([7]; kinetic model fit, TDI, MDMA-independent inactivation): 0.005 min⁻¹ | Finact ([7]; kinetic model fit, TDI, value fixed from MIC analysis): 0.42 | Amax (MIC) [8, 11]: 37% | Kobs (MIC) [8, 11]: 0.085 min⁻¹ | maximal amplitude of MIC formation ([8]; CYP2D6-PLS, saturating MDMA): 45 ± 3 % of the total P450 content | Kd ([8]; kD, kinetic model fit, kinetics of MIC formation, k2/k1 with k1 fixed): 55.5 µM | k3 [8, 12]: 1.7 min⁻¹ | k4 [8, 12]: 0.167 min⁻¹ | k5 [8, 12]: 0.027 min⁻¹ | Finact ([8]; kinetic model fit, kinetics of MIC formation, CYP2D6-PLS): 0.423 and 0.42

COc1cc([C@@H]2c3cc4c(cc3[C@H](O)[C@H]3COC(=O)[C@H]23)OCO4)cc(OC)c1OC [podophylotoxin]
reversibility of the Fe2+:carbene complex (MIC) (CYP3A4): virtually irreversible

B1: CYP2D6 (CYP2D6 Supersomes) (Homo sapiens) (protein)
chain: MGLEALVPLAVIVAIFLLLVDLMHRRQRWAARYPPGPLPLPGLGNLLHVDFQNTPYCFDQLRRRFGDVFSLQLAWTPVVVLNGLAAVREALVTHGEDTADRPPVPITQILGFGPRSQGVFLARYGPAWREQRRFSVSTLRNLGLGKKSLEQWVTEEAACLCAAFANHSGRPFRPNGLLDKAVSNVIASLTCGRRFEYDDPRFLRLLDLAQEGLKEESGFLREVLNAVPVLLHIPALAGKVLRFQKAFLTQLDELLTEHRMTWDPAQPPRDLTEAFLAEMEKAKGNPESSFNDENLRIVVADLFSAGMVTTSTTLAWGLLLMILHPDVQRRVQQEIDDVIGQVRRPEMGDQAHMPYTTAVIHEVQRFGDIVPLGVTHMTSRDIEVQGFRIPKGTTLITNLSSVLKDEAVWEKPFRFHPEHFLDAQGHFVKPEAFLPFSAGRRACLGEPLARMELFLFFTSLLQHFSFSVPTGQPRPSHHGVFAFLVSPSPYELCAVPR
Km [9]: 3.5 µM
